One test relates to VM-NSCs. The experiment in a line: DA neuron differentiation (TH+ cell yield) of in vitro expanded VM-NSCs. In kind it is cell-based, rat. On the procedure:
NSCs were cultured from rat embryo VMs (Sprague Dawley) at embryonic day 12 (E12) on 6-cm dishes or 24-well plates pre-coated with 15 μg/ml poly-L-ornithine (PLO; Sigma)/1 ug/ml fibronectin (FN; Sigma, St. Louis, Mo.) in serum-free N2 medium. NSCs were induced to proliferate by the mitogenic action of basic fibroblast growth factor (bFGF, 20 ng/ml, R&D Systems, Minneapolis, Minn.). The proliferating VM-NSCs cultured in 6-cm dishes were passaged at every 4th day in mitogen-supplemented medium with or without Vitamin C (VC; Sigma; 200 μM), glutathione reduced form (GSH; Sigma; 200 μM), vitamin E (alpha-tocopherol; Sigma; 200 μM), or N-acetylcysteine (NAc; Sigma; 100 μM). The expanded NSCs at the last day of each passage were induced to differentiate by withdrawing the mitogen and antioxidants from the media (for 2-16 days). Human NSC cultures were derived by in vitro differentiation of hESCs (H9) and cultured as described in the following reference. [Rhee, Y. H., Ko, J. Y., Chang, M. Y., Yi, S. H., Kim, D., Kim, C. H., Shim, J. W., Jo, A. Y., Kim, B. W., Lee, H., et al. (2011). Protein-based human iPS cells efficiently generate functional dopamine neurons and can treat a rat model of Parkinson disease. The Journal of clinical investigation 121, 2326-2335]. The human NSCs were expanded in ITS media supplemented with bFGF (20 ng/ml) in the presence or absence of VC for two NSC passages. Differentiation of the passaged human NSCs was induced by withdrawal of bFGF and VC in ITS supplemented with brain-derived neurotrophic factor (20 ng/ml; R&D Systems), glial cell line derived neurotrophic factor (20 ng/ml; R&D Systems), and dibutyryl cAMP (0.5 mmol/1; Sigma). Cultures were maintained at 37° C. in humidified 5% CO2 incubators.
Cultured cells and cryosectioned brain slices were fixed with 4% paraformaldehyde (PFA), and blocked for 40 minutes in blocking solution (Blocking solution: 1% BSA+0.3% Triton X-100). For 5hmC and 5mC staining, the fixed cells were incubated with 2 N HCl for 20 minutes before the blocking reaction. The samples were incubated overnight at 4° C. in the blocking solution containing the primary antibodies listed in Supplemental Table 1. Secondary antibodies tagged with Alexa 488 (1:200, Invitrogen, Carlsbad, Calif.) and Cy3 (1:200, Jackson Immunoresearch Laboratories, West Grove, Pa.) were applied. Stained samples were mounted in Vectashield medium containing 40,6-diamidino-2-phenylindole (DAPI; Vector Laboratories, West Grove, Pa.) and analysed under an epifluorescence (Leica, Wetzlar, Germany) or confocal microscope (Leica TSP SP5).
Immunostained cells were counted in 10-20 random areas of each culture coverslip using an eyepiece grid at a magnification of 200×. Data are expressed as the mean±SEM of three to eight independent cultures. […]

Test [1] concerns human TH promoter regions. Nature of the test: DIP-qPCR/ChIP-qPCR on human TH promoter. The class given is cell-based. The source says:
Foxa2 and Nurr1 binding sites were identified using the Jaspar database (http://jaspar.genereg.net/) using an 80% score threshold. Predicted Foxa2 and Nurr1 binding sites were coupled with phylogenetic footprinting to eliminate spurious predictions with specified position weight matrix (PWM) settings, as described in the following reference. [Sandelin, A., and Wasserman, W. W. (2004). Constrained binding site diversity within families of transcription factors enhances pattern discovery bioinformatics. Journal of molecular biology 338, 207-215] (Table 2). ChIP and DIP assays were carried out as described in the following reference. [Prolonged membrane depolarization enhances midbrain dopamine neuron differentiation via epigenetic histone modifications. Stem Cells 29, 1861-1873]. Briefly, chromatin or genomic DNA was sheared to an average of 200-500 bp in length using a sonication Bioruptor (BMS, Seoul, Korea) and immunoprecipitated using the antibodies listed in Table 1. Immunoprecipitated DNA fragments were collected using magnetic beads (Invitrogen), purified, and subjected to real-time PCR using the primers listed in Table 3. The comparative cycle threshold method was used to quantify the results. Data were normalized to the input DNA.

Take `O=C1O[C@H]([C@@H](O)CO)C(O)=C1O` [VC, L-ascorbic acid]: the “expression of other DA phenotypes (VMAT2, AADC and DAT) in TH+ cells” value in the test with VM-NSCs (P1, VC during expansion, differentiated 12 days without VC) was “Virtually all”. For the same compound, the “TH+ cell yields (% of total DAPI+ cells)” value in the test with VM-NSCs (VC 200 uM during expansion, P1 cultures, differentiated without VC, D6) is 10.85±1.2%. The “TH+ DA neuronal yields” value in the test on VM-NSCs (VC during expansion, P2 cultures, differentiated without VC) came to 1.22±0.1%. Besides, the “prevention of DA neuron loss in passaged cultures” value in the test with VM-NSCs (antioxidant during expansion for 8 days (up to P1), differentiation without antioxidants) was “prevention of DA neuron loss”. In test [1], the “H3K9m3/H3K27m3 levels in human TH promoter regions” value is “undetectable”. The “levels of 5hmC at human TH promoter regions” value in test [1] (two consensus Nurr1 binding sites, D6) is reported as “enhanced”.

The values are drawn from US20190183939A1, “CELL THERAPY USING MIDBRAIN-TYPE NEURAL STEM CELLS TREATED WITH VITAMIN C” (INDUSTRY-UNIVERSITY COOPERATION FOUNDATION HANYANG …, priority 2017, published 2019).
